Assay results reported in PMC12373995 (Nature Communications, 2025).
Peptide text beside a SMILES is read from it. * marks the point of attachment. Cbz = O=C(OCc1ccccc1)*

How the values were obtained:
ESR1 mRNA [1] = assay: Real-time PCR of ESR1 mRNA, MCF-7; assay type: cell-based, human; conditions: MCF-7, Supplementary Fig. 1a
MCF-7 cells = assay: CCK-8 cell viability, MCF-7; assay type: cell-based, human; conditions: MCF-7 and T47D, Supplementary Fig. 1e–g
PARP and Bcl-2 = PARP and Bcl-2 by western blot, LCC2; assay type: cell-based, human; conditions: LCC2, 50 or 100 nM, 48 h
[2] = tested on: Tamoxifen-resistant patient-derived organoids (PDOs); assay: Organoid live/dead staining; assay type: cell-based, human; conditions: PDO
[3] = Serum markers of liver and kidney function in tumor-bearing mice; assay type: in vivo; conditions: therapeutic doses
[4] = tested on: Tamoxifen-resistant cells LCC2; assay: CCK-8 cell viability, LCC2; assay type: cell-based, human; conditions: LCC2, Fig. 7h, i
ESR1 mRNA [5] = assay: Real-time PCR of ESR1 mRNA, T47D; assay type: cell-based, human; conditions: Supplementary Fig. 1b
LCC2 xenografts = assay: Tamoxifen-resistant LCC2 xenografts in nude mice; assay type: in vivo
[6] = tested on: ERα transcriptional activity (ERE); assay: ERE-luciferase assay, MCF-7; assay type: cell-based, human; conditions: Fig. 3i, MCF-7 and T47D
ERα = target: T1, ERα (Homo sapiens, UniProt P03372); assay type: cell-based; conditions: MCF-7 and T47D, with Bufalin
T1 sequence (P03372 1-595): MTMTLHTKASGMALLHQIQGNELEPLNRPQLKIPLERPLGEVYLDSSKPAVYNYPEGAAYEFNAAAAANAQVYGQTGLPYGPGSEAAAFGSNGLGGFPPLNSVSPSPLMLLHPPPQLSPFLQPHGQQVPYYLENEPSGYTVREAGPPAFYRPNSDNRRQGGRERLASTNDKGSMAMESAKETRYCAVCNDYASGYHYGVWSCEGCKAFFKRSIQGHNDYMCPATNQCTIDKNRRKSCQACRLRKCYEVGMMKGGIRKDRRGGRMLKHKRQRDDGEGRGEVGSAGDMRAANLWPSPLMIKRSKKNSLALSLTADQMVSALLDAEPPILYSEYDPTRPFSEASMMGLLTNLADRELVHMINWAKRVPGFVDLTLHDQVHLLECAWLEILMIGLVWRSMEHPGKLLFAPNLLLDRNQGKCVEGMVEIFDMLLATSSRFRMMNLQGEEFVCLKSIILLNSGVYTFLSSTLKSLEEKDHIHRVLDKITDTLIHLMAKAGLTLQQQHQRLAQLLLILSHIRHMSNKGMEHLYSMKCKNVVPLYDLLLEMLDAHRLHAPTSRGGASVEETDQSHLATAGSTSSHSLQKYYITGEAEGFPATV

C[C@]12CC[C@H](O)C[C@H]1CC[C@@H]1[C@@H]2CC[C@]2(C)[C@@H](c3ccc(=O)oc3)CC[C@]12O [Bufalin]
mRNA of ERα (ESR1 mRNA [1]): no obvious change
Anti-cancer effects compared with Fulvestrant (MCF-7 cells): stronger anti-cancer effects than Fulvestrant
Apoptosis markers PARP and Bcl-2 (PARP and Bcl-2): PARP cleavage, and Bcl-2 downregulation
Cell death by Calcein-AM/PI staining [2]: extensive cell death
Toxicity by serum liver and kidney markers [3]: no significant signs of drug-induced toxicity
Anti-cancer effects compared with Fulvestrant [4]: better anti-cancer effects than Fulvestrant
mRNA of ERα (ESR1 mRNA [5]): no obvious change
ERα protein expression in tumors (LCC2 xenografts; IHC and western blot): the protein expression of ERα was decreased
Anti-tumor activity compared with Fulvestrant (LCC2 xenografts; LCC2 xenografts): superior anti-tumor activity to Fulvestrant
Ki67 in tumors (IHC) (LCC2 xenografts; LCC2 xenografts): marked Ki67 suppression
Tumor volumes and weights (LCC2 xenografts; intraperitoneal injection): the tumor volumes and weights significantly decreased
Transcriptional activity of ERα (ERE luciferase) [6]: weakened the transcriptional activity of ERα

CC(C)C[C@@H](C=O)NC(=O)[C@H](CC(C)C)NC(=O)[C@H](CC(C)C)NC(=O)OCc1ccccc1 [MG-132] (Cbz-Leu-Leu-Leu-aldehyde)
Effect of co-treatment on Bufalin-induced ERα decrease (ERα): effectively prevented the Bufalin-induced decrease in ERα protein levels

NS(=O)(=O)OC[C@@H]1C[C@@H](n2ccc3c(N[C@H]4CCc5ccccc54)ncnc32)C[C@@H]1O [MLN4924]
Effect of co-treatment on Bufalin-induced ERα decrease (ERα): reversed the Bufalin-mediated downregulation of ERα
